The target of assay [1] is T1, E129V mutant human TP receptor (Homo sapiens, UniProt P21731, E129V).
T1 construct: expressed in transfected cells; host or cells: HEK293
T1 sequence (P21731 1-343 E129V): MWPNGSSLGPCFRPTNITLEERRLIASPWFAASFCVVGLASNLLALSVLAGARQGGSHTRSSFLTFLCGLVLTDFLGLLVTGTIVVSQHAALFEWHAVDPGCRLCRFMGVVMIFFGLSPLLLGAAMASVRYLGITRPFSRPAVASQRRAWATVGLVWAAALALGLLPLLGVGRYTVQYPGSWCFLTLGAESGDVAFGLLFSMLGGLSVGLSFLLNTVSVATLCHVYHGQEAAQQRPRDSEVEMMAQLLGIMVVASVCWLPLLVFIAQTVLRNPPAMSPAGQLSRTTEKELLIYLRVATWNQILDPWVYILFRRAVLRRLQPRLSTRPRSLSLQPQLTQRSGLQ
Description: [3H]SQ29,548 radioligand binding (mixed-type and heterologous competition), E129V mutant. The note with it: HEK293 cells, E129V, value ±%CV. The procedure: (§1) Receptor expression and functional activity were monitored 48 hours after transfection. […] Heterologous competition studies involved concentrations of the indicated unlabeled ligands extending from 0.1 nM to 30 µM. After 30 min incubation at 25 °C, the reaction was stopped by aspiration of the medium, cells were washed with ice-cold PBS containing 0.2% (w/v) BSA and lysed in 0.5 N NaOH. Radioactivity was measured by liquid scintillation counting. Binding data were analyzed as described in Data and Statistical Analysis. Quantification of the total labeled inositol phosphates (IP) accumulation was performed using a conventional gravity flow column chromatography, as described previously, [19]. Briefly, the day before the assay, cells were labeled with 0,5 µCi of [myo-2-^3H]inositol (17 Ci/mmol) for 18–20 hours in serum-free, inositol-free DMEM containing 20 mM HEPES buffer, pH 7.4, and 0.5% (w/v) Albumax I. The day of the assay, media was replaced with serum-free, inositol-free DMEM containing 25 mM LiCl and cells stimulated for 30 min with the indicated agonists. After removal of the medium, cells were lysed with 10 mM formic acid and lysates were applied onto an anion exchange AG 1X-8 column, formate form, 200–400 mesh. The total IP fraction was then eluted with 2 M ammonium formate/formic acid buffer at pH 5 and radioactivity determined by liquid scintillation counting. Rescue experiments were performed essentially as above, except for a 18 hours incubation step with 1 µΜof SQ29,584 followed by its removal by washing three times with ice-cold PBS containing 1 mM MgCl2 and 0.1 mM CaCl2 before starting the experiment.
(§2) All average results are presented as mean±S.E. When indicated, ANOVA followed by post-hoc test for multiple comparisons was performed. Data from radioligand binding were evaluated by a nonlinear, least-squares curve-fitting procedure using GraphPad Prism version 4, implemented with the n-ligand m-binding site model, as described in the LIGAND computer program. Concentration-response curves were evaluated using Prism 4, which use the four parameters logistic model as described in the ALLFIT program. Parameter errors are all expressed in percentage coefficient of variation (%CV) and calculated by simultaneous analysis of at least two different independent experiments performed in duplicate or triplicate. Parameter comparison has been performed on the base of the F test for extra sum of square principle. All curves shown are computer generated.
(§3) Thus, transfection conditions were adjusted to secure equivalent levels of receptor expression for WT and mutants as previously described, [17], [19]. […] All the experiments were conducted within this range of receptor expression, if not specified differently.

Assay [2] has as its target T2, E129/240V double mutant human TP receptor (Homo sapiens, UniProt P21731, E129V/E240V).
T2 construct: expressed in transfected cells; host or cells: HEK293
T2 sequence (P21731 1-343 E129V/E240V): T1 sequence (P21731 1-343 E129V) with E240V
Kind of assay: [3H]SQ29,548 radioligand binding (mixed-type), E129/240V double mutant. Particulars: HEK293 cells, no Gαq, before SQ29,548 rescue, value ±%CV. The procedure: Receptor expression and functional activity were monitored 48 hours after transfection. […] Heterologous competition studies involved concentrations of the indicated unlabeled ligands extending from 0.1 nM to 30 µM. After 30 min incubation at 25 °C, the reaction was stopped by aspiration of the medium, cells were washed with ice-cold PBS containing 0.2% (w/v) BSA and lysed in 0.5 N NaOH. Radioactivity was measured by liquid scintillation counting. Binding data were analyzed as described in Data and Statistical Analysis. Quantification of the total labeled inositol phosphates (IP) accumulation was performed using a conventional gravity flow column chromatography, as described previously, [19]. […] The total IP fraction was then eluted with 2 M ammonium formate/formic acid buffer at pH 5 and radioactivity determined by liquid scintillation counting. […]
All average results are presented as mean±S.E. When indicated, ANOVA followed by post-hoc test for multiple comparisons was performed. Data from radioligand binding were evaluated by a nonlinear, least-squares curve-fitting procedure using GraphPad Prism version 4, implemented with the n-ligand m-binding site model, as described in the LIGAND computer program. Concentration-response curves were evaluated using Prism 4, which use the four parameters logistic model as described in the ALLFIT program. […]

Assay [3] has as its target T3, E240V mutant human TP receptor (Homo sapiens, UniProt P21731, E240V).
T3 construct: expressed in transfected cells; host or cells: HEK293
T3 sequence (P21731 1-343 E240V): T1 sequence (P21731 1-343 E129V) with V129E, E240V
Kind of assay: [3H]SQ29,548 radioligand binding (mixed-type), E240V mutant. The note with it: HEK293 cells, value ±%CV. The procedure:
as §1, with “Rescue experiments were performed essentially as above, except for a 18 hours incubation step with 1 µΜof SQ29,584 followed by its removal by washing three times with ice-cold PBS containing 1 mM MgCl2 and 0.1 mM CaCl2 before starting the experiment.” left out
as §2, with “Parameter comparison has been performed on the base of the F test for extra sum of square principle. All curves shown are computer generated.” left out

The target in the next assay is T4, WT human TP receptor (Homo sapiens, UniProt P21731).
T4 construct: expressed in transfected cells; host or cells: HEK293
T4 sequence (P21731 1-343): T1 sequence (P21731 1-343 E129V) with V129E
Kind of assay: [3H]SQ29,548 radioligand binding (mixed-type and heterologous competition), WT receptor. The note with it: HEK293 cells, value ±%CV. The procedure: as §1, §2, §3

Substitutions are numbered along the chain they refer to. Marks after values point to notes of the source that are not given here.

For the compound `O=C(O)CCC/C=C\C[C@@H]1[C@H](CNNC(=O)Nc2ccccc2)[C@@H]2CC[C@H]1O2` [[^3H]SQ29,548, [5,6-^3H]SQ29,548], the Bmax is given as 0.38±21 pmol/mg prot in assay [1] (Gαq 3x); 0.39±30 pmol/mg prot in assay [1] (Gαq 5x); 0.53±16 pmol/mg prot in assay [1] (no Gαq cotransfection); 0.04±68 ^b pmol/mg prot in assay [2]; 0.65±52 pmol/mg prot in assay [3] (Gαq 3x); 0.49±34 pmol/mg prot in assay [3] (Gαq 5x). In addition, the Bmax in assay [3] (no Gαq cotransfection) worked out at 0.97±31 pmol/mg prot; at WT human TP receptor (Gαq 3x) it was 0.90±46 pmol/mg prot; on WT human TP receptor (Gαq 5x), 0.95±39 pmol/mg prot; at WT human TP receptor (no Gαq cotransfection), 0.44±32 pmol/mg prot.

These data come from paper PMC3610872, “Full and Partial Agonists of Thromboxane Prostanoid Receptor Unveil Fine Tuning of Receptor Superactive Conformation and G Protein Activation” (PLoS ONE, 2013).
